Results reported in US8895499B2, “β-hairpin peptidomimetics” (Polyphor AG, priority 2010, dated 2014).
Values after ≈ are worked out from the molar mass of the structure shown. Peptide text beside a SMILES is read from it.

Key:
Shigella boydii DSM 7532 = conditions: Mueller-Hinton II broth + 0.02% BSA, 18-20 hours at 37° C.
Method: […] colony forming units (CFU)/mL. Aliquots (50 μl) of inoculate were added to 50 μl of MH broth+0.02% BSA containing the peptide in serial two-fold dilutions. The following microorganisms were used to determine antibiotic selectivity of the peptides: Bacillus subtilis DSM 10 and Shigella boydii DSM 7532.

in vitro = format: cell-based
Method: The cytotoxicity of the peptides to HELA cells (Acc57) and COS-7 cells (CRL-1651) was determined using the MTT reduction assay (T. Mossman, J. Immunol. Meth. 1983, 65, 55-63; M. V. Berridge, A. S. Tan, Arch. Biochem. Biophys. 1993, 303, 474-482). Briefly, the method was as follows: 4000 HELA cells/well and 3400 COS-7 cells/well were seeded and grown in 96-well microtiter plates for 24 h at 37° C. at 5% CO2. Thereafter, time zero (Tz) was determined by MTT reduction (see below). The supernatant of the remaining wells was discarded, and fresh medium and compounds in serial dilutions (12.5, 25 and 50 μg/mL, triplicates) were pipetted into the wells. After incubation of the cells for 48 h at 37° C. at 5% CO2 the supernatant was discarded again and 100 μL MTT reagent (0.5 mg/mL in RPMI1640 and DMEM, respectively)/well was added. Following incubation at 37° C. for 2-4 h the media were aspirated and the cells were spiked (100 μL isopropanol/well). The absorbance of the solubilized formazan was measured at 595 nm (OD595peptide). For each concentration averages were calculated from triplicates. The percentage of growth was calculated as follows: (OD595peptide-OD595Tz-OD595Empty well)/(OD595Tz-OD595Empty well)×100%. The GI50 (Growth Inhibition) concentrations were calculated for each peptide by using a trend line function for the concentrations (50, 25, 12.5 and 0 μg/mL), the corresponding percentages and the value 50, (=TREND (C50:C0%50:%0,50).

[1] = tested on: human red blood cells (hRBC); format: cell-based; conditions: red cells of human, 1 h
Method: The peptides were tested for their hemolytic activity against human red blood cells (hRBC). Fresh hRBC were washed three times with phosphate buffered saline (PBS) and centrifuged for 10 min at 2000×g. Compounds (100 μg/mL) were incubated with 20% hRBC (v/v) for 1 h at 37° C. and shaking at 300 rpm. The final erythrocyte concentration was approximately 0.9×10^9 cells/mL. A value of 0% and 100% cell lyses, respectively, was determined by incubation of hRBC in the presence of PBS containing 0.001% acetic acid and 2.5% Triton X-100 in H2O, respectively. The samples were centrifuged, the supernatants were 8-fold diluted in PBS buffer and the optical densities (OD) were measured at 540 nm. The 100% lyses value (OD540H2O) gave an OD50 of approximately 0.5-1.0.
Percent hemolysis was calculated as follows: (OD540peptide/OD540H2O)×100%.

SMILES	Shigella boydii DSM 7532 MIC (Shigella boydii DSM 7532) [µg/mL]	GI50 at 48 h (in vitro; African green monkey) [µg/mL]	GI50 at 48 h (in vitro; human) [µg/mL]	Hemolysis at 100 μg/mL [1] [%]
CC[C@H](C)[C@@H]1NC(=O)[C@H](CCCNC(=N)N)NC(=O)[C@H](Cc2c[nH]c3ccccc23)NC(=O)[C@@H]2CCCN2C(=O)[C@H]2CCCN2C(=O)[C@H](C)NC(=O)[C@H](CCC(N)=O)NC(=O)[C@H](CC(C)C)NC(=O)[C@H](CCCNC(=N)N)NC(=O)[C@H](CCC(N)=O)NC(=O)[C@H]([C@@H](C)O)NC(=O)[C@@H](CCCNC(=N)N)NC(=O)[C@H]([C@@H](C)CC)NC(=O)[C@H](CCCNC(=N)N)NC1=O [Example 12] (HELM PEPTIDE1{W.R.I.R.I.[dR].T.Q.R.L.Q.A.[dP].P}$PEPTIDE1,PEPTIDE1,1:R1-14:R2$$$V2.0)	>16	> 50	> 50	0.7
CC[C@H](C)[C@@H]1NC(=O)[C@H](CCCNC(=N)N)NC(=O)[C@H](Cc2c[nH]c3ccccc23)NC(=O)[C@@H]2CCCN2C(=O)[C@H]2CCCN2C(=O)[C@H](C)NC(=O)[C@H](CCC(N)=O)NC(=O)[C@H](CC(C)C)NC(=O)[C@H](CCCNC(=N)N)NC(=O)[C@H](CCC(N)=O)NC(=O)[C@H](CC(C)C)NC(=O)[C@@H](CCCNC(=N)N)NC(=O)[C@H]([C@@H](C)CC)NC(=O)[C@H](CCCNC(=N)N)NC1=O [Example 13] (HELM PEPTIDE1{W.R.I.R.I.[dR].L.Q.R.L.Q.A.[dP].P}$PEPTIDE1,PEPTIDE1,1:R1-14:R2$$$V2.0)	16	> 50	> 50	0.0
CC[C@H](C)[C@@H]1NC(=O)[C@H](CCCNC(=N)N)NC(=O)[C@H](Cc2c[nH]c3ccccc23)NC(=O)[C@@H]2CCCN2C(=O)[C@H]2CCCN2C(=O)[C@H](C)NC(=O)[C@H](CCC(N)=O)NC(=O)[C@H](CC(C)C)NC(=O)[C@H](CCCNC(=N)N)NC(=O)[C@H](CCC(N)=O)NC(=O)[C@H](Cc2ccc(O)cc2)NC(=O)[C@@H](CCCNC(=N)N)NC(=O)[C@H]([C@@H](C)CC)NC(=O)[C@H](CCCNC(=N)N)NC1=O [Example 14] (HELM PEPTIDE1{W.R.I.R.I.[dR].Y.Q.R.L.Q.A.[dP].P}$PEPTIDE1,PEPTIDE1,1:R1-14:R2$$$V2.0)	16	> 50	> 50	0.0
CC[C@H](C)[C@@H]1NC(=O)[C@H](CCCNC(=N)N)NC(=O)[C@H](Cc2c[nH]c3ccccc23)NC(=O)[C@@H]2CCCN2C(=O)[C@H]2CCCN2C(=O)[C@H](C)NC(=O)[C@H](CCC(N)=O)NC(=O)[C@H](Cc2ccc(O)cc2)NC(=O)[C@H](CCCNC(=N)N)NC(=O)[C@H](CCC(N)=O)NC(=O)[C@H](CC(N)=O)NC(=O)[C@@H](CCCNC(=N)N)NC(=O)[C@H]([C@@H](C)CC)NC(=O)[C@H](CCCNC(=N)N)NC1=O [Example 15] (HELM PEPTIDE1{W.R.I.R.I.[dR].N.Q.R.Y.Q.A.[dP].P}$PEPTIDE1,PEPTIDE1,1:R1-14:R2$$$V2.0)	16	> 50	> 50	0.0
CC[C@H](C)[C@@H]1NC(=O)[C@H](CCCNC(=N)N)NC(=O)[C@H](Cc2c[nH]c3ccccc23)NC(=O)[C@@H]2CCCN2C(=O)[C@H]2CCCN2C(=O)[C@H](C)NC(=O)[C@H](CCC(N)=O)NC(=O)[C@H](Cc2c[nH]c3ccccc23)NC(=O)[C@H](CCCNC(=N)N)NC(=O)[C@H](CCC(N)=O)NC(=O)[C@H](CC(N)=O)NC(=O)[C@@H](CCCNC(=N)N)NC(=O)[C@H]([C@@H](C)CC)NC(=O)[C@H](CCCNC(=N)N)NC1=O [Example 16] (HELM PEPTIDE1{W.R.I.R.I.[dR].N.Q.R.W.Q.A.[dP].P}$PEPTIDE1,PEPTIDE1,1:R1-14:R2$$$V2.0)	16	> 50	> 50	0.5
CC[C@H](C)[C@@H]1NC(=O)[C@H](CCCNC(=N)N)NC(=O)[C@H](Cc2c[nH]c3ccccc23)NC(=O)[C@@H]2CCCN2C(=O)[C@H]2CCCN2C(=O)[C@H](CCN)NC(=O)[C@H](CCCNC(=N)N)NC(=O)[C@H](CC(N)=O)NC(=O)[C@H](CCN)NC(=O)[C@H](Cc2c[nH]c3ccccc23)NC(=O)[C@H](CC(N)=O)NC(=O)[C@@H](CCN)NC(=O)[C@H]([C@@H](C)CC)NC(=O)[C@H](CCCNC(=N)N)NC1=O [Example 17] (HELM PEPTIDE1{W.R.I.R.I.[NCC[C@@H](N[*:1])C(=O)[*:2]].N.W.[Dab].N.R.[Dab].[dP].P}$PEPTIDE1,PEPTIDE1,1:R1-14:R2$$$V2.0)	4	44 (≈ 24.6 µM)	38 (≈ 21.2 µM)	0.2
CC[C@H](C)[C@@H]1NC(=O)[C@H](CCCNC(=N)N)NC(=O)[C@H](Cc2c[nH]c3ccccc23)NC(=O)[C@@H]2CCCN2C(=O)[C@H]2CCCN2C(=O)[C@H](CCCNC(=N)N)NC(=O)[C@H](CCCNC(=N)N)NC(=O)[C@H](CC(N)=O)NC(=O)[C@H](CCCNC(=N)N)NC(=O)[C@H](Cc2c[nH]cn2)NC(=O)[C@H](CC(N)=O)NC(=O)[C@@H](CCCNC(=N)N)NC(=O)[C@H]([C@@H](C)CC)NC(=O)[C@H](CCCNC(=N)N)NC1=O [Example 18] (HELM PEPTIDE1{W.R.I.R.I.[dR].N.H.R.N.R.R.[dP].P}$PEPTIDE1,PEPTIDE1,1:R1-14:R2$$$V2.0)	4	> 50	39 (≈ 20.4 µM)	0.3
